Experimental data from ChEMBL document CHEMBL1201862, “PubChem BioAssay data set” (2004).
Active and inactive are the calls of the source.

What was measured:
[1] = biological target: T1, Lysine-specific demethylase 4C (Homo sapiens, UniProt Q9H3R0); assay: GASC-1 (JMJD2C) histone demethylase inhibitors, dose response, biochemical, DELFIA europium, cherry-picked samples (AID 488835); format: functional
T1 sequence (Q9H3R0 whole entry): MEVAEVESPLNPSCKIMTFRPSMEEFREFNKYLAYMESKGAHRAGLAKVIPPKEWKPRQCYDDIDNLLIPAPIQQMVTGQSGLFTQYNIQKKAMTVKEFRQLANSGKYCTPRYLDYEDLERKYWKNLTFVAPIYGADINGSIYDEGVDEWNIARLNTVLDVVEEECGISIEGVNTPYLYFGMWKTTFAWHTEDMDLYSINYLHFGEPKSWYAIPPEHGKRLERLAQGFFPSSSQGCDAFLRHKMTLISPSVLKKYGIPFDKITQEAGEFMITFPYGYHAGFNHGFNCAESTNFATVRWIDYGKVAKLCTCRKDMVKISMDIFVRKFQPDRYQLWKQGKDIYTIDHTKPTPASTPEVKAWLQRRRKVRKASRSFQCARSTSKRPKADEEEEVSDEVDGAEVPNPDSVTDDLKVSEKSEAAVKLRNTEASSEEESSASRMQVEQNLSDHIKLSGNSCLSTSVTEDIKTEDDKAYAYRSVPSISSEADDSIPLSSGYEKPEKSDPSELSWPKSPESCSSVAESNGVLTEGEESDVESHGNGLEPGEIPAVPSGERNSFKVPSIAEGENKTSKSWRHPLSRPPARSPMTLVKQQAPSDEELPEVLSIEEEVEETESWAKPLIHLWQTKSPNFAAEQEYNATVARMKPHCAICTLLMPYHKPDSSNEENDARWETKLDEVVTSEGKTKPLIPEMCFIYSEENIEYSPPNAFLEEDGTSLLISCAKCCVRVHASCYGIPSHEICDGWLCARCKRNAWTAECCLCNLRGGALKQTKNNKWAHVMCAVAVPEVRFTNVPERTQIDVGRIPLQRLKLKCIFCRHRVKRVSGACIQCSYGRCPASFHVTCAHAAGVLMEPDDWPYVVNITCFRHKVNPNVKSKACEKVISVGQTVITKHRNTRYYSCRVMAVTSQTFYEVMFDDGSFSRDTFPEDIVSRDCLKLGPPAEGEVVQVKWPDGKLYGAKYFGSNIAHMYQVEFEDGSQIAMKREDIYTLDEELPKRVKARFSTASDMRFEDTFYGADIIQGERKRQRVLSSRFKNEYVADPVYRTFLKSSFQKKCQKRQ

[2] = biological target: Voltage-dependent T-type calcium channel subunit alpha-1H (Homo sapiens, UniProt O95180); format: functional;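 further: channel activity triggered by adding a high calcium stimulation buffer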
Voltage-dependent T-type calcium channel subunit alpha-1H, sequence (O95180 whole entry): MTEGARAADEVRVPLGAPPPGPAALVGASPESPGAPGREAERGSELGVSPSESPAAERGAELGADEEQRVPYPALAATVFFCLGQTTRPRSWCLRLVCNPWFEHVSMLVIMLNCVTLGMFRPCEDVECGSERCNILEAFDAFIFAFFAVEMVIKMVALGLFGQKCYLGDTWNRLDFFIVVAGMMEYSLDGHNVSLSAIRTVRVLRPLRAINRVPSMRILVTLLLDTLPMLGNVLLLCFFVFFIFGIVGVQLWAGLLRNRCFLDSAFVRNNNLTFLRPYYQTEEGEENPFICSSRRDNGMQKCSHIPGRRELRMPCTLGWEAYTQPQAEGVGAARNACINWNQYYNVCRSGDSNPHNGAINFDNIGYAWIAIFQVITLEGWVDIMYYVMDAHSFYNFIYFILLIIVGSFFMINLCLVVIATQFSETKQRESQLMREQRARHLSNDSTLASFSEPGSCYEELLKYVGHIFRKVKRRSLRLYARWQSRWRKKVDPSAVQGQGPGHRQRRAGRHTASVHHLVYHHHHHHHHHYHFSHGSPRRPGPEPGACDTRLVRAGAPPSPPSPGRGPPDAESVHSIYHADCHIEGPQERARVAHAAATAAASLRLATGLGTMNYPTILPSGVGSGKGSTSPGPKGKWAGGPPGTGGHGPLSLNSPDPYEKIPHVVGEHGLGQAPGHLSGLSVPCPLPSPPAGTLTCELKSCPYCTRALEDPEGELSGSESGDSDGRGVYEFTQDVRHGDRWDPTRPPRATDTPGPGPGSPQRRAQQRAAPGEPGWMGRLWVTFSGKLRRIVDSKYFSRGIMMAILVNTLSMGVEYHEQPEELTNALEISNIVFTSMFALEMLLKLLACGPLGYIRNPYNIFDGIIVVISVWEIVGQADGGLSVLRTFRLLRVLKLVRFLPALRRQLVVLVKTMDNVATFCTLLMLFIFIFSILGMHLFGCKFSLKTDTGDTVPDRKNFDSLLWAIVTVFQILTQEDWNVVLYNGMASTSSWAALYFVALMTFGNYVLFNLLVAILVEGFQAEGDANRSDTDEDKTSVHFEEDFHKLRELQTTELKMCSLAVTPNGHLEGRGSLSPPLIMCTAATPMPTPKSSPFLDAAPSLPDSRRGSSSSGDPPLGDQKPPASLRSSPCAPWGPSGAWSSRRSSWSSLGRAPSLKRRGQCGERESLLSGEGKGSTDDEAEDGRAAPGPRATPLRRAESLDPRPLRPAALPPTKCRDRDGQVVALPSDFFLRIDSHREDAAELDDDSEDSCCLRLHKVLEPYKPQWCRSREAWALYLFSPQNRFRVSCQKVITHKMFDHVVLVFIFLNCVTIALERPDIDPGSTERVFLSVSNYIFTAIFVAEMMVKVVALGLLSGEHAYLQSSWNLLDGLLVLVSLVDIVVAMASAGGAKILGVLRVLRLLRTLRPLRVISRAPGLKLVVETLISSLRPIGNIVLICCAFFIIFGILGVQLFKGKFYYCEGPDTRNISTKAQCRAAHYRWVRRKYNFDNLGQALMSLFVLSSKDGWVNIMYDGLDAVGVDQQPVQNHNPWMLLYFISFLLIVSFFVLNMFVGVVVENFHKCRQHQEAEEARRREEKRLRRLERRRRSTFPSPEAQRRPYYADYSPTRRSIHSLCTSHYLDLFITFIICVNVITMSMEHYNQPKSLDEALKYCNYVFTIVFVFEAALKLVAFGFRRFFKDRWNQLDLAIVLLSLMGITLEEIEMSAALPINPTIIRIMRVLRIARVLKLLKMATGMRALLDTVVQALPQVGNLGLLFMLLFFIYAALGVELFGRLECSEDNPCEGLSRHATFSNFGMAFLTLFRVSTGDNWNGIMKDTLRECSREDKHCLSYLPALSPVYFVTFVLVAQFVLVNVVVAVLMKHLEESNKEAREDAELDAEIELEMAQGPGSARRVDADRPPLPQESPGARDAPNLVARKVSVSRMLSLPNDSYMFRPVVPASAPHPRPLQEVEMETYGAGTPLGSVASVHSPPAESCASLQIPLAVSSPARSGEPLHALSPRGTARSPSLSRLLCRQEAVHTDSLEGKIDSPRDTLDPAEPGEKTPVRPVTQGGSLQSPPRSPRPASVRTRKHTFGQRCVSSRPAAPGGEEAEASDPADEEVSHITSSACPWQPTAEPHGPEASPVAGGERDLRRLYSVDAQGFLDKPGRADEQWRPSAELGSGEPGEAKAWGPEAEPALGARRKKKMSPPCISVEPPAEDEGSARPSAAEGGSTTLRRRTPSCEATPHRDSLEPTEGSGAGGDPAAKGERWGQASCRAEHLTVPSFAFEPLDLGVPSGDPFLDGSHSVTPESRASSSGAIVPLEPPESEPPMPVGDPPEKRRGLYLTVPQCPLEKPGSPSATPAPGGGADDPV

[3] = biological target: T2, Short transient receptor potential channel 4 (Mus musculus, UniProt Q9QUQ5); assay: mouse TRPC4 channel activators, dose response, cell-based, HEK293 TRPC4/mu-opioid, Fluo-4 calcium (AID 434937); format: functional
T2 sequence (Q9QUQ5 whole entry): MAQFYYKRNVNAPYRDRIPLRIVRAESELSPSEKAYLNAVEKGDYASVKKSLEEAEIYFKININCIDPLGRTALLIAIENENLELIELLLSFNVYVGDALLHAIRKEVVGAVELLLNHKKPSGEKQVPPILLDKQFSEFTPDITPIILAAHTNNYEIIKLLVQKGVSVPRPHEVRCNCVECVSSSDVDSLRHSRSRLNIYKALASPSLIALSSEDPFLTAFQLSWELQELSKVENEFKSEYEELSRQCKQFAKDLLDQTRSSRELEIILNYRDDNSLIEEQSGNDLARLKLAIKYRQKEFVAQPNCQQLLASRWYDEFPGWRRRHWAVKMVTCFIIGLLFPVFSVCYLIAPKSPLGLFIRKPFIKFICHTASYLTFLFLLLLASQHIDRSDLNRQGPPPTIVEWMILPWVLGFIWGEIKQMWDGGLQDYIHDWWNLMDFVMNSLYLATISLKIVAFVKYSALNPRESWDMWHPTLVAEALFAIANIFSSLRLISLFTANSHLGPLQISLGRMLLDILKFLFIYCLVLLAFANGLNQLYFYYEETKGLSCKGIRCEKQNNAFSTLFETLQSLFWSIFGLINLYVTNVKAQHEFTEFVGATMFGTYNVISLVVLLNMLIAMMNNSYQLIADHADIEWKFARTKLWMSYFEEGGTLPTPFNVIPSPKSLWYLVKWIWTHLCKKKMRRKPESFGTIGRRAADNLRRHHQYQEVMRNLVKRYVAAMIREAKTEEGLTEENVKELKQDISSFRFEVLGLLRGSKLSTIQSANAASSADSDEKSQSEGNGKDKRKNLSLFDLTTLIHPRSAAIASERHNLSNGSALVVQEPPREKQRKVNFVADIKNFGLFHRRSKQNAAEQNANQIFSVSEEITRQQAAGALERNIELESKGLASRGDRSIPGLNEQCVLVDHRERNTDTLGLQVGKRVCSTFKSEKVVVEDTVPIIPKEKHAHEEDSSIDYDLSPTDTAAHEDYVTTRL

[4] = biological target: Voltage-gated inwardly rectifying potassium channel KCNH2 (Homo sapiens, UniProt Q12809); conditions: Potency;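 further: confirmatory quantitative high-throughput screen measuring inhibition of hERG channel activity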
Voltage-gated inwardly rectifying potassium channel KCNH2, sequence (Q12809 whole entry): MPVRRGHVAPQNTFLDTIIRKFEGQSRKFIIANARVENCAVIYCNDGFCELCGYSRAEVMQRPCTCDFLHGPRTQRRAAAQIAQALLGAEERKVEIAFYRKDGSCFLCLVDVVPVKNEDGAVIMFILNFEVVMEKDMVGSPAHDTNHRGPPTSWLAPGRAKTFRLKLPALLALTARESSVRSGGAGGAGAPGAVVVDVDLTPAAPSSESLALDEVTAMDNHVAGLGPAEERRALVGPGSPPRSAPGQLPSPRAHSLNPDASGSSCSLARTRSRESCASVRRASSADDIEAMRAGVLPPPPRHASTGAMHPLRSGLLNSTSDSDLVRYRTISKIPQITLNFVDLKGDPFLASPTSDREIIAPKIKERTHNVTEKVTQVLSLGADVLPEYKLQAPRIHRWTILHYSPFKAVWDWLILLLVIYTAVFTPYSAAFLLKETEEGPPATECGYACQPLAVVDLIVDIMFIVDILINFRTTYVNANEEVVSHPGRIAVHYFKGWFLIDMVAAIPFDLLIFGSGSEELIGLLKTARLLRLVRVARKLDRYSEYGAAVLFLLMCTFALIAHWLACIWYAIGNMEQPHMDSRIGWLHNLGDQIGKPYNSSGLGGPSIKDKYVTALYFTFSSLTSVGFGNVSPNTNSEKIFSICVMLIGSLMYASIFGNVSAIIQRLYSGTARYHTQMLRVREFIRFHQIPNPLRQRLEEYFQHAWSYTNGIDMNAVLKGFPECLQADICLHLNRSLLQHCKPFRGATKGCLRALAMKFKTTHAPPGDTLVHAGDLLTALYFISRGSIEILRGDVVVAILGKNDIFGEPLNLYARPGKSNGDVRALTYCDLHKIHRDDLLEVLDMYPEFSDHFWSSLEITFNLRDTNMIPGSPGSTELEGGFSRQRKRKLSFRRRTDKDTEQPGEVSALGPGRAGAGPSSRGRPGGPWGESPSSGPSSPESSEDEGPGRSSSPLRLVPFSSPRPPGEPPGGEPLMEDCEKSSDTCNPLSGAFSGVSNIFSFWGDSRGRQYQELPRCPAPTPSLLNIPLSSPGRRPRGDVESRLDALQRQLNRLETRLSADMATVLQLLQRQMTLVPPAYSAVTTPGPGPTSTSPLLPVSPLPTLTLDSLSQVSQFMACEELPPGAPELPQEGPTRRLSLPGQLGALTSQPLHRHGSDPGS

Estrogen receptor = biological target: T3, Estrogen receptor (Homo sapiens, UniProt P03372);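 further: potency for inhibiting coactivator peptide recruitment to the receptor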
T3 sequence (P03372 whole entry): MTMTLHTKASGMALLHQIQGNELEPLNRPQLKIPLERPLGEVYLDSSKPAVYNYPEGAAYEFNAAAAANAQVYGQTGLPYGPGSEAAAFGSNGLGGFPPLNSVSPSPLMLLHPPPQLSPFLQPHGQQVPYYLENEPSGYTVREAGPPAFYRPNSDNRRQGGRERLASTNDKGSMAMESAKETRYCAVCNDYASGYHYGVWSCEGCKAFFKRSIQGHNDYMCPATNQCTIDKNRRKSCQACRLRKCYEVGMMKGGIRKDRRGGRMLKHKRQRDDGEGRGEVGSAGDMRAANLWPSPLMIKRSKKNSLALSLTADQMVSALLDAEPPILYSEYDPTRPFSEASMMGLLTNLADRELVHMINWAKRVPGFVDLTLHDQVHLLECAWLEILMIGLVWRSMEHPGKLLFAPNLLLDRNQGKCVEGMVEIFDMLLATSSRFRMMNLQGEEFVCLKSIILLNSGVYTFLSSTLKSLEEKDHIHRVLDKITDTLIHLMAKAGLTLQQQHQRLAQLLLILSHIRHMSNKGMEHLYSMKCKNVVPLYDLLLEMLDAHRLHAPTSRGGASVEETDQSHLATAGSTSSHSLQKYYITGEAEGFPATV

Troponin, cardiac muscle = Troponin, cardiac muscle (Homo sapiens, UniProt P19429+P45379+P63316); assay: Fluorescence-based biochemical high throughput dose response assay for activators of the calcium sensitivity of cardiac Regulated Thin Filaments (RTF). [Related pubchem assays (depositor defined):AID493008, AID493018, AID504382, AID504383]; format: protein-complex assay

O=C(NCc1ccccn1)c1cn(Cc2ccccc2)nn1
AC50 [1]: > 60 µM (inactive)

Cc1cccc(C(=O)N2CCN(c3ccc(C(F)(F)F)cn3)CC2)c1C
EC50 [2]: 9.85 µM (active)

Cc1ccc(-c2csc3nc4cc(C(=O)NC5CCC(O)CC5)ccc4c(=O)n23)cc1 (stereo unspecified)
AC50 [1]: 3.96 µM (active)

CC1(c2ccc(Cl)cc2Cl)OCC(Cn2ccnc2)O1 (stereo unspecified)
EC50 [3]: 2.37 µM (active)

CC(C)N=C=NC(C)C
AC50 [4]: 35.5 µM (inconclusive)

Cn1c(Cc2ccccc2)nnc1SCC(=O)c1cccs1
IC50 (Estrogen receptor): > 50 µM (not active)

O=C(CN1CCN(c2ccccc2F)CC1)Nc1cccnc1Cl
EC50 (Troponin, cardiac muscle): > 71.5 µM (inactive)

CNC(=O)OCC[N+](C)(C)C [METHYLCARBAMYLCHOLINE CHLORIDE]
AC50 [4]: 35.5 µM (inconclusive)

COc1ccc(CSc2nnc(Cc3sc(-c4ccccc4)nc3-c3ccccc3)o2)cc1
EC50 [2]: 5.33 µM (active)

Cc1c(Cl)cccc1NC(S)=NCC(c1cccnc1)N(C)C (stereo unspecified)
EC50 [3]: 0.0013 µM (active)

Cc1ccc(-c2noc(CCC(=O)N(C)c3ccccc3C)n2)cc1
EC50 [2]: 4.56 µM (active)
